# In US20090280549A1, “Method for Treating Body Fluid” (priority 2005, published 2009):
# Experiments:
# [1] = tested on: EoL-1 cells (human eosinophilic leukemia cells); assay: ATX-S10•Na(II) uptake into EoL-1 cells; type: cell-based; details: for ATX-S10•Na(II) uptake: EoL-1
# Description: (§1) After labeling the compound represented by formula (II) above (hereinafter referred to as “ATX-S10•Na(II)”) with ^14C, the ATX-S10•Na(II) was dissolved in saline at a concentration of approximately 1×10^−3 mol/L, and the solution was filtered and sterilized with a 0.22 μm filter and then diluted with 1% FBS (fetal bovine serum)-containing RPMI1640 medium to prepare a 5×10^−5 mol/L ATX-S10•Na(II)-added solution.
# (§2) As malignant lymphoma cells and leukemia cells, there were used THP-1 cells (human monocytic leukemia cells), EoL-1 cells (human eosinophilic leukemia cells), A3/KAW cells (human malignant lymphoma cells) and KG-1 cells (human acute myeloid leukemia cells). All of the cells were cultured using 10% FBS-containing RPMI1640 medium, with subculturing 1 to 2 times per week during the culturing. The THP-1 cells and EoL-1 cells were obtained from RIKEN BioResource Center, and the A3/KAW cells and KG-1 cells were obtained from Japan Health Sciences Foundation.
# (§3) After adding 400 μL of the cell suspension and 100 μL of the ATX-S10•Na(II)-added solution to each well of a 48-well microplate and mixing, the mixtures were incubated with a CO2 incubator (37° C., 5% CO2) or allowed to stand in a refrigerating chamber (approximately 4° C.). The cells were separated immediately after addition (0 hours after addition) and 1 hour, 3 hours, 20 hours and 44 hours after addition, and ATX-S10•Na(II) uptake into the cells (including cell surface binding) was measured. The uptake with standing at 4° C. corresponds to cell surface binding, and the value of the uptake with incubation at 37° C. minus the uptake with standing at 4° C. is presumed to correspond to the substantial ATX-S 10 Na(II) uptake for each type of cell.
# (§4) The cell separation and uptake measurement were performed in the following manner. Specifically, 1 mL of 1.5% BSA (bovine serum albumin)-containing PBS solution (ice-cold) was placed in a 1.5 mL tube. The suspension of cells to be separated was gently pipetted and mixed, and a 100 μL portion was taken and superposed onto the 1.5% BSA-containing PBS solution. For each well, the cell suspension (300 μL) was dispensed into three tubes (n=3). After centrifugation (3200 rpm, 10 minutes, 4° C.), the medium and 1.5% BSA-containing PBS solution were removed by suction, and then the precipitate was suspended in 100 μL of PBS(−), and 1 mL of PBS(−) was further added and mixed therewith. After additional centrifugation (3000 rpm, 10 minutes, 4° C.), the supernatant was removed by suction, and the bottom of the tube, where the precipitate is present, was cut out and transferred to a counting vial. Then 4.5 mL of liquid scintillator was added and mixed therewith, and the radioactivity was measured for 5 minutes using a liquid scintillation counter. The measured radioactivity was used to calculate the ATX-S10•Na(II) uptake (pmol/10^5 cells) into the cells.
# platelets = assay: ATX-S10•Na(II) uptake into platelets; type: cell-based, human
# Description: as §1
# (§5) Erythrocytes, platelets, neutrophils and lymphocytes were prepared from blood sampled from three healthy persons (designated as A, B and C).
# The platelets were prepared from citric acid-treated blood. […]
# as §3, with “The uptake with standing at 4° C. corresponds to cell surface binding, and the value of the uptake with incubation at 37° C. minus the uptake with standing at 4° C. is presumed to correspond to the substantial ATX-S 10 Na(II) uptake for each type of cell.” left out
# (§6) The cell separation and uptake measurement were performed in the following manner. […] Then 4.5 mL of liquid scintillator was added and mixed therewith, and the radioactivity was measured for 5 minutes using a liquid scintillation counter. […]
# lymphocytes = assay: ATX-S10•Na(II) uptake into lymphocytes; type: cell-based, human
# Description: as §1, §5
# The erythrocytes, neutrophils and lymphocytes were prepared from heparinized blood. […]
# as §3, with “The uptake with standing at 4° C. corresponds to cell surface binding, and the value of the uptake with incubation at 37° C. minus the uptake with standing at 4° C. is presumed to correspond to the substantial ATX-S 10 Na(II) uptake for each type of cell.” left out
# as §6
# [2] = tested on: A3/KAW cells (human malignant lymphoma cells); assay: ATX-S10•Na(II) uptake into A3/KAW cells; type: cell-based; details: for ATX-S10•Na(II) uptake: A3/KAW
# Description: as §1, §2, §3, §4
# [3] = tested on: THP-1 cells (human monocytic leukemia cells); assay: ATX-S10•Na(II) uptake into THP-1 cells; type: cell-based; details: for ATX-S10•Na(II) uptake: THP-1
# Description: as §1, §2, §3, §4
# [4] = 0 hr, immediately after addition
compound,measurement,setting,value
C=Cc1c(C)c2cc3nc(cc4[nH]c(cc5nc(cc1[nH]2)C(C)=C5CCC(=O)NC(CC(=O)[O-])C(=O)[O-])c(CCC(=O)NC(CC(=O)[O-])C(=O)[O-])c4C)C(C)(O)/C3=C\C=NO.[Na+].[Na+].[Na+].[Na+] (stereo not drawn) [ATX-S10•Na(II)],ATX-S10•Na(II) uptake,[1]; [4],0.32 pmol/10^5 cells
same,ATX-S10•Na(II) uptake,"[1]; 1 hr, incubation at 37° C.",0.25 pmol/10^5 cells
same,ATX-S10•Na(II) uptake,"[1]; 1 hr, standing at 4° C.",0.30 pmol/10^5 cells
same,ATX-S10•Na(II) uptake,"[1]; 3 hr, incubation at 37° C.",0.48 pmol/10^5 cells
same,ATX-S10•Na(II) uptake,"[1]; 3 hr, standing at 4° C.",0.32 pmol/10^5 cells
same,ATX-S10•Na(II) uptake,"[1]; 20 hr, incubation at 37° C.",1.59 pmol/10^5 cells
same,ATX-S10•Na(II) uptake,"[1]; 20 hr, standing at 4° C.",0.36 pmol/10^5 cells
same,ATX-S10•Na(II) uptake,"[1]; 44 hr, incubation at 37° C.",3.09 pmol/10^5 cells
same,ATX-S10•Na(II) uptake,"[1]; 44 hr, standing at 4° C.",0.37 pmol/10^5 cells
same,uptake compared between cell types,"[1]; EoL-1 cells versus THP-1, A3/KAW and KG-1 cells",fairly low value
same,substantial uptake of ATX-S10•Na(II) (uptake at 37° C. minus uptake at 4° C.),"[1]; EoL-1 cells, course over incubation time",increased with incubation time
same,Aggregation of platelets,platelets; after incubation at 37° C. for 44 hours,Aggregation of platelets was observed
same,ATX-S10•Na(II) uptake,platelets; platelets,Almost no ATX-S10•Na(II) was taken up
same,uptake compared between cell types,"lymphocytes; lymphocytes versus EoL-1, THP-1 and A3/KAW cells","higher than EoL-1 cells, although not as high as THP-1 cells or A3/KAW cells"
same,substantial uptake of ATX-S10•Na(II) (uptake at 37° C. minus uptake at 4° C.),"lymphocytes; lymphocytes, course over incubation time",increased with incubation time
same,substantial uptake of ATX-S10•Na(II) (uptake at 37° C. minus uptake at 4° C.),"[2]; A3/KAW cells, course over incubation time",increased with incubation time
same,ATX-S10•Na(II) uptake,[2]; [4],0.72 pmol/10^5 cells
same,ATX-S10•Na(II) uptake,"[2]; 1 hr, incubation at 37° C.",2.38 pmol/10^5 cells
same,ATX-S10•Na(II) uptake,"[2]; 1 hr, standing at 4° C.",1.16 pmol/10^5 cells
same,ATX-S10•Na(II) uptake,"[2]; 3 hr, incubation at 37° C.",3.79 pmol/10^5 cells
same,ATX-S10•Na(II) uptake,"[2]; 3 hr, standing at 4° C.",1.06 pmol/10^5 cells
same,ATX-S10•Na(II) uptake,"[2]; 20 hr, incubation at 37° C.",10.06 pmol/10^5 cells
same,ATX-S10•Na(II) uptake,"[2]; 20 hr, standing at 4° C.",1.44 pmol/10^5 cells
same,ATX-S10•Na(II) uptake,"[2]; 44 hr, incubation at 37° C.",27.64 pmol/10^5 cells
same,ATX-S10•Na(II) uptake,"[2]; 44 hr, standing at 4° C.",5.07 pmol/10^5 cells
same,ATX-S10•Na(II) uptake,[3]; [4],0.56 pmol/10^5 cells
same,ATX-S10•Na(II) uptake,"[3]; 1 hr, incubation at 37° C.",3.30 pmol/10^5 cells
same,ATX-S10•Na(II) uptake,"[3]; 1 hr, standing at 4° C.",1.43 pmol/10^5 cells
same,ATX-S10•Na(II) uptake,"[3]; 3 hr, incubation at 37° C.",4.73 pmol/10^5 cells
same,ATX-S10•Na(II) uptake,"[3]; 3 hr, standing at 4° C.",2.88 pmol/10^5 cells
same,ATX-S10•Na(II) uptake,"[3]; 20 hr, incubation at 37° C.",18.39 pmol/10^5 cells
same,ATX-S10•Na(II) uptake,"[3]; 20 hr, standing at 4° C.",5.37 pmol/10^5 cells
same,ATX-S10•Na(II) uptake,"[3]; 44 hr, incubation at 37° C.",33.21 pmol/10^5 cells
same,ATX-S10•Na(II) uptake,"[3]; 44 hr, standing at 4° C.",1.94 pmol/10^5 cells
same,uptake compared between cell types,"[3]; THP-1 cells versus A3/KAW, KG-1 and EoL-1 cells",highest
same,substantial uptake of ATX-S10•Na(II) (uptake at 37° C. minus uptake at 4° C.),"[3]; THP-1 cells, course over incubation time",increased with incubation time
